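The compound was tested at five concentrations on cells cultured in 96-well plates, with a 48-hour exposure period. Definition used: TGI = concentration required for complete inhibition of growth.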
test system: ACHN renal; experiment: NCI tumour cell line growth inhibition, 48 h

Row | SMILES | TGI [µM]
1 | CC1CC(N)=Nc2ccccc2N1 (configuration not stated) | > 100
2 | O=C(O)c1n[nH]nc1Cl | > 100
3 | CN(c1ccc(Cl)cc1)S(=O)(=O)c1cccc([N+](=O)[O-])c1 | > 100
4 | CCC(=O)NC(Nc1cccc(F)c1C)(C(F)(F)F)C(F)(F)F | > 100
5 | Cc1cc2nc3c(C#N)c(-c4ccccc4)cc(Nc4ccc(Cl)cc4)n3c2cc1C | > 100
6 | CN(c1ccc(Cl)cc1)S(=O)(=O)c1ccc([N+](=O)[O-])cc1 | > 100
7 | O=S1(=O)OCCOS(=O)(=O)C1F | > 100
8 | O=c1[nH]c(-c2ccc3ccccc3c2)nc2ccccc12 | 80.2
9 | CC(C)(C)C(=O)OCC1CCC[N+]2(C)CCCCC12 (configuration not stated) | > 100
10 | COCCOCc1nc(C#N)c(N)o1 | > 100
11 | CN1C(=O)N/C(=C\c2ccc(S(=O)(=O)NN)cc2)C1=O | > 100
12 | CN(C)Cc1cc(C(=O)/C=C/c2ccc(Cl)cc2)cc(CN(C)C)c1O | 16.1
13 | O=S(=O)(c1ccccc1)n1c2cc3cccnc3nc2c2cccnc21 | > 100
14 | Cc1cc(N(CCC#N)CCC#N)ccc1/C(N=Nc1ccc([N+](=O)[O-])cc1)=N\NC(=O)c1cc(Cl)ccc1C(=O)c1ccccc1 | > 100
15 | CC(=O)c1c2c(cc3c1CC1(Cc4ccccc4C1=O)C3)CCC2 (configuration not stated) | > 100
16 | Cc1cccc(-c2nc3ccc([N+](=O)[O-])cc3c(=O)o2)c1 | > 100
17 | O=C1N=c2ccccc2=C1c1c(O)[nH]c2ccccc12 | 37.1
18 | NC(N)=NCCN=C(N)N | > 100
19 | NC(=O)C(N)Cc1ccc(O)cn1 (configuration not stated) | > 100
20 | COC(=O)C(C)(NC(=O)C(CC(=O)OC(C)(C)C)NC(=O)OC(C)(C)C)c1ccccc1 (configuration not stated) | > 100
21 | COc1ccc(N=C2SC(=N/N=c3\sc4ccccc4n3C)SC2=Nc2ccc(OC)cc2)cc1 | > 100
22 | CCOC(=O)C1=CC(C)(C(=O)OCC)Nc2c(nc(OC)n(C)c2=O)N1 (configuration not stated) | > 10
23 | S=C(c1c[nH]c2ccccc12)N1CCOCC1 | > 100
24 | CNc1ccc(OC)cc1S(=O)(=O)c1ccccc1[N+](=O)[O-] | > 100
25 | CC1(CCCO)CCCCCC(C)(CCCO)C1=O (configuration not stated) | > 100
26 | COC(C)(C)C1=CCC(C)CC1 (configuration not stated) | > 100
27 | C=C1CC(c2ccc(OCCCN3C(=O)c4ccccc4C3=O)c(OC)c2)OC1=O (configuration not stated) | 18.7

test system: EKVX NSCLC; experiment: NCI tumour cell line growth inhibition, 48 h

Row | SMILES | TGI [µM]
28 | CC1CC(N)=Nc2ccccc2N1 (configuration not stated) | > 100
29 | O=C(O)c1n[nH]nc1Cl | > 100
30 | CN(c1ccc(Cl)cc1)S(=O)(=O)c1cccc([N+](=O)[O-])c1 | > 100
31 | CCC(=O)NC(Nc1cccc(F)c1C)(C(F)(F)F)C(F)(F)F | > 100
32 | Cc1cc2nc3c(C#N)c(-c4ccccc4)cc(Nc4ccc(Cl)cc4)n3c2cc1C | > 100
33 | CN(c1ccc(Cl)cc1)S(=O)(=O)c1ccc([N+](=O)[O-])cc1 | > 100
34 | O=S1(=O)OCCOS(=O)(=O)C1F | > 100
35 | O=c1[nH]c(-c2ccc3ccccc3c2)nc2ccccc12 | > 100
36 | CC(C)(C)C(=O)OCC1CCC[N+]2(C)CCCCC12 (configuration not stated) | > 100
37 | COCCOCc1nc(C#N)c(N)o1 | > 100
38 | CN1C(=O)N/C(=C\c2ccc(S(=O)(=O)NN)cc2)C1=O | > 100
39 | CN(C)Cc1cc(C(=O)/C=C/c2ccc(Cl)cc2)cc(CN(C)C)c1O | 38.8
40 | O=S(=O)(c1ccccc1)n1c2cc3cccnc3nc2c2cccnc21 | > 100
41 | Cc1cc(N(CCC#N)CCC#N)ccc1/C(N=Nc1ccc([N+](=O)[O-])cc1)=N\NC(=O)c1cc(Cl)ccc1C(=O)c1ccccc1 | 28.3
42 | CC(=O)c1c2c(cc3c1CC1(Cc4ccccc4C1=O)C3)CCC2 (configuration not stated) | 63.9
43 | O=C1N=c2ccccc2=C1c1c(O)[nH]c2ccccc12 | 71.6
44 | NC(N)=NCCN=C(N)N | > 100
45 | NC(=O)C(N)Cc1ccc(O)cn1 (configuration not stated) | > 100
46 | COC(=O)C(C)(NC(=O)C(CC(=O)OC(C)(C)C)NC(=O)OC(C)(C)C)c1ccccc1 (configuration not stated) | > 100
47 | COc1ccc(N=C2SC(=N/N=c3\sc4ccccc4n3C)SC2=Nc2ccc(OC)cc2)cc1 | > 100
48 | CCOC(=O)C1=CC(C)(C(=O)OCC)Nc2c(nc(OC)n(C)c2=O)N1 (configuration not stated) | > 10
49 | S=C(c1c[nH]c2ccccc12)N1CCOCC1 | > 100
50 | CNc1ccc(OC)cc1S(=O)(=O)c1ccccc1[N+](=O)[O-] | > 100
51 | CC1(CCCO)CCCCCC(C)(CCCO)C1=O (configuration not stated) | > 100
52 | COC(C)(C)C1=CCC(C)CC1 (configuration not stated) | > 100
53 | C=C1CC(c2ccc(OCCCN3C(=O)c4ccccc4C3=O)c(OC)c2)OC1=O (configuration not stated) | 30.6

test system: HOP-92 NSCLC; experiment: NCI tumour cell line growth inhibition, 48 h

Row | SMILES | TGI [µM]
54 | CCC(=O)NC(Nc1cccc(F)c1C)(C(F)(F)F)C(F)(F)F | > 100
55 | O=c1[nH]c(-c2ccc3ccccc3c2)nc2ccccc12 | > 100
56 | CC(C)(C)C(=O)OCC1CCC[N+]2(C)CCCCC12 (configuration not stated) | > 100
57 | COCCOCc1nc(C#N)c(N)o1 | > 100
58 | CN1C(=O)N/C(=C\c2ccc(S(=O)(=O)NN)cc2)C1=O | > 100
59 | O=S(=O)(c1ccccc1)n1c2cc3cccnc3nc2c2cccnc21 | > 100
60 | CC(=O)c1c2c(cc3c1CC1(Cc4ccccc4C1=O)C3)CCC2 (configuration not stated) | 49.5
61 | Cc1cccc(-c2nc3ccc([N+](=O)[O-])cc3c(=O)o2)c1 | 93
62 | O=C1N=c2ccccc2=C1c1c(O)[nH]c2ccccc12 | 81.1
63 | NC(N)=NCCN=C(N)N | > 100
64 | NC(=O)C(N)Cc1ccc(O)cn1 (configuration not stated) | > 100
65 | COC(=O)C(C)(NC(=O)C(CC(=O)OC(C)(C)C)NC(=O)OC(C)(C)C)c1ccccc1 (configuration not stated) | > 100
66 | COc1ccc(N=C2SC(=N/N=c3\sc4ccccc4n3C)SC2=Nc2ccc(OC)cc2)cc1 | > 100
67 | CCOC(=O)C1=CC(C)(C(=O)OCC)Nc2c(nc(OC)n(C)c2=O)N1 (configuration not stated) | > 10
68 | CC1(CCCO)CCCCCC(C)(CCCO)C1=O (configuration not stated) | > 100
69 | COC(C)(C)C1=CCC(C)CC1 (configuration not stated) | > 100
70 | C=C1CC(c2ccc(OCCCN3C(=O)c4ccccc4C3=O)c(OC)c2)OC1=O (configuration not stated) | 3.51

test system: M14 melanoma; experiment: NCI tumour cell line growth inhibition, 48 h

Row | SMILES | TGI [µM]
71 | CC1CC(N)=Nc2ccccc2N1 (configuration not stated) | > 100
72 | O=C(O)c1n[nH]nc1Cl | > 100
73 | CN(c1ccc(Cl)cc1)S(=O)(=O)c1cccc([N+](=O)[O-])c1 | > 100
74 | CCC(=O)NC(Nc1cccc(F)c1C)(C(F)(F)F)C(F)(F)F | > 100
75 | Cc1cc2nc3c(C#N)c(-c4ccccc4)cc(Nc4ccc(Cl)cc4)n3c2cc1C | > 100
76 | CN(c1ccc(Cl)cc1)S(=O)(=O)c1ccc([N+](=O)[O-])cc1 | > 100
77 | O=S1(=O)OCCOS(=O)(=O)C1F | > 100
78 | O=c1[nH]c(-c2ccc3ccccc3c2)nc2ccccc12 | > 100
79 | CC(C)(C)C(=O)OCC1CCC[N+]2(C)CCCCC12 (configuration not stated) | > 100
80 | COCCOCc1nc(C#N)c(N)o1 | > 100
81 | CN1C(=O)N/C(=C\c2ccc(S(=O)(=O)NN)cc2)C1=O | > 100
82 | O=S(=O)(c1ccccc1)n1c2cc3cccnc3nc2c2cccnc21 | > 100
83 | Cc1cc(N(CCC#N)CCC#N)ccc1/C(N=Nc1ccc([N+](=O)[O-])cc1)=N\NC(=O)c1cc(Cl)ccc1C(=O)c1ccccc1 | > 100
84 | CC(=O)c1c2c(cc3c1CC1(Cc4ccccc4C1=O)C3)CCC2 (configuration not stated) | 74.5
85 | O=C1N=c2ccccc2=C1c1c(O)[nH]c2ccccc12 | > 100
86 | NC(N)=NCCN=C(N)N | > 100
87 | COC(=O)C(C)(NC(=O)C(CC(=O)OC(C)(C)C)NC(=O)OC(C)(C)C)c1ccccc1 (configuration not stated) | > 100
88 | COc1ccc(N=C2SC(=N/N=c3\sc4ccccc4n3C)SC2=Nc2ccc(OC)cc2)cc1 | > 100
89 | CCOC(=O)C1=CC(C)(C(=O)OCC)Nc2c(nc(OC)n(C)c2=O)N1 (configuration not stated) | > 10
90 | S=C(c1c[nH]c2ccccc12)N1CCOCC1 | > 100
91 | CNc1ccc(OC)cc1S(=O)(=O)c1ccccc1[N+](=O)[O-] | > 100
92 | CC1(CCCO)CCCCCC(C)(CCCO)C1=O (configuration not stated) | > 100
93 | COC(C)(C)C1=CCC(C)CC1 (configuration not stated) | > 100
94 | C=C1CC(c2ccc(OCCCN3C(=O)c4ccccc4C3=O)c(OC)c2)OC1=O (configuration not stated) | 17.3

test system: MALME-3M melanoma; experiment: NCI tumour cell line growth inhibition, 48 h

Row | SMILES | TGI [µM]
95 | CC1CC(N)=Nc2ccccc2N1 (configuration not stated) | > 100
96 | O=C(O)c1n[nH]nc1Cl | > 100
97 | CN(c1ccc(Cl)cc1)S(=O)(=O)c1cccc([N+](=O)[O-])c1 | > 100
98 | CCC(=O)NC(Nc1cccc(F)c1C)(C(F)(F)F)C(F)(F)F | > 100
99 | Cc1cc2nc3c(C#N)c(-c4ccccc4)cc(Nc4ccc(Cl)cc4)n3c2cc1C | > 100
100 | CN(c1ccc(Cl)cc1)S(=O)(=O)c1ccc([N+](=O)[O-])cc1 | > 100
101 | O=S1(=O)OCCOS(=O)(=O)C1F | > 100
102 | O=c1[nH]c(-c2ccc3ccccc3c2)nc2ccccc12 | > 100
103 | CC(C)(C)C(=O)OCC1CCC[N+]2(C)CCCCC12 (configuration not stated) | > 100
104 | COCCOCc1nc(C#N)c(N)o1 | > 100
105 | CN1C(=O)N/C(=C\c2ccc(S(=O)(=O)NN)cc2)C1=O | > 100
106 | CN(C)Cc1cc(C(=O)/C=C/c2ccc(Cl)cc2)cc(CN(C)C)c1O | 24.8
107 | O=S(=O)(c1ccccc1)n1c2cc3cccnc3nc2c2cccnc21 | > 100
108 | Cc1cc(N(CCC#N)CCC#N)ccc1/C(N=Nc1ccc([N+](=O)[O-])cc1)=N\NC(=O)c1cc(Cl)ccc1C(=O)c1ccccc1 | 31.1
109 | CC(=O)c1c2c(cc3c1CC1(Cc4ccccc4C1=O)C3)CCC2 (configuration not stated) | 51.5
110 | Cc1cccc(-c2nc3ccc([N+](=O)[O-])cc3c(=O)o2)c1 | > 100
111 | O=C1N=c2ccccc2=C1c1c(O)[nH]c2ccccc12 | 35.5
112 | NC(N)=NCCN=C(N)N | > 100
113 | NC(=O)C(N)Cc1ccc(O)cn1 (configuration not stated) | > 100
114 | COC(=O)C(C)(NC(=O)C(CC(=O)OC(C)(C)C)NC(=O)OC(C)(C)C)c1ccccc1 (configuration not stated) | > 100
115 | COc1ccc(N=C2SC(=N/N=c3\sc4ccccc4n3C)SC2=Nc2ccc(OC)cc2)cc1 | > 100
116 | CCOC(=O)C1=CC(C)(C(=O)OCC)Nc2c(nc(OC)n(C)c2=O)N1 (configuration not stated) | > 10
117 | S=C(c1c[nH]c2ccccc12)N1CCOCC1 | > 100
